Measured values: ChEMBL document CHEMBL5608175, “Lipid-conjugated nucleoside monophosphate and monophosphonate prodrugs: A versatile drug delivery paradigm” (Eur J Med Chem, 2024)

Assays:
[1] = Metabolic stability in human liver microsomes assessed as half life; format: ADME, Microsome; conditions: for half-life: liver microsomes
[2] = biological target: Human immunodeficiency virus type 1 reverse transcriptase (Human immunodeficiency virus 1, UniProt Q72547); assay: Inhibition of HIV-1 reverse transcriptase
[3] = Cytotoxicity against African green monkey Vero E6 cells; format: toxicity, cell-based, Vero C1008; conditions: chlorocebus sabaeus
SARS-CoV-2 [4] = assay: Antiviral activity against SARS-CoV-2 2019-nCoV/USA_WA1/2020 infected in African green monkey Vero E6 cells assessed as reduction in viral replication pre-treated with compound for 30 mins followed by viral infection and measured after 48 hrs; format: functional, organism-based; conditions: Severe acute respiratory syndrome coronavirus 2, 2019-nCoV/USA_WA1/2020, Vero C1008
SARS-CoV-2 [5] = assay: Antiviral activity against SARS-CoV-2 2019-nCoV/USA_WA1/2020 infected in human PSC-derived lung epithelial cell assessed as reduction in viral replication pre-treated with compound for 30 mins followed by viral infection and measured after 48 hrs; format: functional, organism-based; conditions: Severe acute respiratory syndrome coronavirus 2, 2019-nCoV/USA_WA1/2020, Epithelial cell
SARS-CoV-2 [6] = assay: Antiviral activity against SARS-CoV-2 2019-nCoV/USA_WA1/2020 infected in human Calu-3 cells assessed as reduction in viral replication pre-treated with compound for 30 mins followed by viral infection and measured after 48 hrs; format: functional, organism-based; conditions: Severe acute respiratory syndrome coronavirus 2, 2019-nCoV/USA_WA1/2020, Calu-3
SARS-CoV-2 [7] = assay: Antiviral activity against SARS-CoV-2 2019-nCoV/USA_WA1/2020 infected in human Caco-2 cells assessed as reduction in viral replication pre-treated with compound for 30 mins followed by viral infection and measured after 48 hrs; format: functional, organism-based; conditions: Severe acute respiratory syndrome coronavirus 2, 2019-nCoV/USA_WA1/2020, Caco-2
SARS-CoV-2 [8] = assay: Antiviral activity against SARS-CoV-2 2019-nCoV/USA_WA1/2020 infected in human Huh7.5 cells assessed as reduction in viral replication pre-treated with compound for 30 mins followed by viral infection and measured after 48 hrs; format: functional, organism-based; conditions: Severe acute respiratory syndrome coronavirus 2, 2019-nCoV/USA_WA1/2020, Huh7.5
SARS-CoV-2 [9] = assay: Antiviral activity against SARS CoV-2 USA-WA1/2020 clinical isolate infected in human Calu-3 cells assessed as reduction in viral infection; format: functional, organism-based; conditions: Severe acute respiratory syndrome coronavirus 2, USA-WA1/2020, Calu-3

Compound	IC50 [2]	CC50 [3]	half-life [1]	further results
CCCCCCCCCCCCCCCCSCCCOP(=O)(O)CO[C@H](C)Cn1cnc2c(N)ncnc21	10 nM	49800 nM		t1/2 ([1]; microsomes): 42 min
CCCCCCCCCCCCCCCCCCCCOP(=O)(O)CO[C@H](C)Cn1cnc2c(N)ncnc21	127 nM	13200 nM	49 min	
CCCCCCCCCCCCCCCCCCOC[C@@H](COP(=O)(O)OC[C@H]1O[C@@](C#N)(c2ccc3c(N)ncnn23)[C@H](O)[C@@H]1O)OCc1ccccc1				EC50 (SARS-CoV-2 [4]): 140 nM; EC50 (SARS-CoV-2 [5]): 150 nM; EC50 (SARS-CoV-2 [6]): 300 nM; EC50 (SARS-CoV-2 [7]): 140 nM; EC50 (SARS-CoV-2 [8]): 300 nM
C[C@H](Cn1cnc2c(N)ncnc21)OCP(=O)(O)OCCOCCCCCCCCCCCCCCCC(F)(F)F	8 nM	> 100000 nM	> 120 min	
CCCCOCCCCCOCCCCCOCCCOP(=O)(O)CO[C@H](C)Cn1cnc2c(N)ncnc21	32000 nM	> 100000 nM		
CCCCCCCCCCCCCCCCCCOC[C@@H](COP(=O)(O)OC[C@H]1O[C@@](C#N)(c2ccc3c(N)ncnn23)[C@H](O)[C@@H]1O)OCc1ccc(OC)c(F)c1				EC50 (SARS-CoV-2 [9]): 70 nM
C[C@H](Cn1cnc2c(N)ncnc21)OCP(=O)(O)OCCOCCCCCCCCCCCCc1ccc(S(F)(F)(F)(F)F)cc1	20 nM	> 100000 nM	> 120 min	
CCCCCCCCCCCCCCOCCCCCOP(=O)(O)CO[C@H](C)Cn1cnc2c(N)ncnc21	52 nM	> 100000 nM	31 min	
C[C@H](Cn1cnc2c(N)ncnc21)OCP(=O)(O)OCCOCCCCCCCCCCCCCC#CC(F)(F)F	16 nM	> 100000 nM	> 120 min	
CCCCCCCCCCCCCCCCCCOCCOP(=O)(O)CO[C@H](C)Cn1cnc2c(N)ncnc21	3 nM	53800 nM	105 min	
CCCCCCCCCCCCCCCCCOCCOP(=O)(O)CO[C@H](C)Cn1cnc2c(N)ncnc21	3 nM	69600 nM	35 min	
C[C@H](Cn1cnc2c(N)ncnc21)OCP(=O)(O)OCCOCCCCCCCCCCCCCCCCC(F)(F)F	10 nM	85100 nM	> 120 min	
C[C@H](Cn1cnc2c(N)ncnc21)OCP(=O)(O)OCCOCCCCCCCCCCCCCCC#CC(F)(F)F	10 nM	> 100000 nM	> 120 min	
CCCCCCCCCCCCCCCCCCOC[C@@H](COP(=O)(O)OC[C@H]1O[C@@](C#N)(c2ccc3c(N)ncnn23)[C@H](O)[C@@H]1O)OCc1ccc(C#N)cc1				EC50 (SARS-CoV-2 [9]): 43 nM
C[C@H](Cn1cnc2c(N)ncnc21)OCP(=O)(O)OCCOCCCCCCCCCCC#Cc1ccc(S(F)(F)(F)(F)F)cc1	10 nM	> 100000 nM	> 120 min	
CCCCCCCCCCCCCCCOCCCCOP(=O)(O)CO[C@H](C)Cn1cnc2c(N)ncnc21	30 nM	> 100000 nM	48 min	
CCCCCCCCCCCCCCCCCCOC[C@@H](COP(=O)(O)OC[C@H]1O[C@@](C#N)(c2ccc3c(N)ncnn23)[C@H](O)[C@@H]1O)OCc1cccc(C#N)c1				EC50 (SARS-CoV-2 [9]): 34 nM
CCCCCCCCOCCCCCOCCCCCOP(=O)(O)CO[C@H](C)Cn1cnc2c(N)ncnc21	4000 nM	> 100000 nM	12 min	
C[C@H](Cn1cnc2c(N)ncnc21)OCP(=O)(O)O [TENOFOVIR ANHYDROUS]	1600 nM	35400 nM	> 120 min	
